# Laboratory results as given in patent US20040126882A1, “Regulatable, catalytically active nucleic acids” (priority 2000, published 2004).
# Columns and labels:
# [1] = system: 3MeX2P6; assay: Effector specificity of 3MeX2P6 in vitro and in vivo
# Protocol: In vitro splicing assays. The assays were preformed by heating the RNA (500 nM) in H2O to 70° C. for 3 min then transferring to ice for 1 min. […] GTP (50 μM) was added to the remaining reaction (5 μl total volume) to start the splicing reaction. The reaction was incubated at 37° C. for 30 min and then terminated with stop dye (5 μl). The reactions were heated to 70° C. for 3 min and 5 μl was analyzed on an 8% denaturing polyacrylamide gel. The gel was dried, exposed to a phosphor screen and analyzed using a Molecular Dynamics Phosphorimager (Sunnyvale, Calif.). In vivo growth curves.
# [2] = system: Rev-dependent ligase; assay type: biochemical
# Protocol: Ligation assays. Ligation assays were performed as described hereinabove.
# [3] = system: Cyt 18-dependent population; assay: Specificity of activation of Cyt18-dependent ribozymes by proteins; assay type: biochemical
# Protocol: (§1) Protein inactivation. Standard ligation assays were performed as described above, but in the presence of protein samples that had been pre-treated as follows. Cyt18 protein was denatured by heating for 10 min at 70° C. or by the addition of 6% SDS (0.7% SDS in ligation reaction). Lysozyme was heated 10 min at 100° C. or incubated 10 min at room temperature in the presence of 2 mM DTT (0.3 mM DTT final reaction) without inactivating the protein. The protein was successfully inactivated by heating for […] at 70° C. in the presence of 2 mM DTT. Ligation reactions were performed with 1.3 μM protein in 15 μl reactions incubated 5 min at 25° C.
# [4] = system: C600ThyA::Kan^R cells
# Protocol: In vivo growth curves. Cells grown overnight in LB were diluted 1:100 in MM containing either theophylline, caffeine, 3-methylxanthine or no effector, and analyzed on a Microbiology Workstation Bioscreen C (Labsystems, Inc., Franklin, Mass.).
# [5] = system: lysozyme-dependent clones; assay: Specificity of activation of lysozyme-dependent ribozymes by proteins; assay type: biochemical; conditions: lysozyme both reduced and denatured
# Protocol: as §1
# [6] = biological target: T1, lysozyme (Gallus gallus, UniProt P00698); assay: Competition assay, competitor RNA against lysozyme activation of lys11-2; assay type: biochemical, hen; conditions: 3 μM competitor RNA, 2 μM lysozyme
# Protocol: Competition assays. Ligation assays were performed as described above, using 10 pmol of [^32P]-body-labeled ribozyme (cyt7-2 or lys11-2; […]) and 20 pmol effector oligonucleotide (2 μM). The denatured and annealed RNA mixture was combined with ligation buffer, 20 pmol protein (Cyt18, lysozyme, or water in the case of (−) protein samples; 2 μM), and 30 pmol of denatured and annealed competitor RNA (3 μM). Competitor RNAs are as follows:
# Where N=(A, G, C, U), and tRNA (from Yeast; Gibco BRL, Gaithersburg, Md.). […] Cyt18 reactions were incubated 5 min at 25° C. and lysozyme reactions were incubated 10 min. Reactions were terminated by the addition of 45 μl of SDS/urea stop mix (75 mM EDTA, 80% formamide, saturated urea, saturated SDS, 0.05% bromophenol blue, 0.05% xylene cyanol) and analyzed on 8% polyacrylamide gels containing 0.1% SDS as above.
# [7] = biological target: T1, lysozyme; assay: Filter binding assay with lysozyme; set-up: species or system hen; conditions: read-out: Kd of anti-lysozyme aptamer
# Protocol: Binding assays. Binding assays were performed in triplicate by combining I pmol of [^32P]-body-labeled RNA, 20 pmol 18.90a, and varying amounts of target protein (1 pmol to 5 nmol) in 50 μl of ligation buffer. After incubation at room temperature for 30 min, the mixture was drawn under vacuum through a series of nitrocellulose and nylon filters and washed with 150 μl of ligation buffer. The ratio of protein-bound RNA versus free RNA was determined by analyzing the counts retained on the nitrocellulose filter versus the counts on the nylon filter.
molecule,measurement,setting,value
Cn1cnc2[nH]c(=O)[nH]c(=O)c21 [7-methylxanthine],responsiveness of 3MeX2P6 variants to effector,[1],nor were they responsive
"Cn1c(=O)c2[nH]c(=O)[nH]c2n(C)c1=O [1,3-dimethyl urilic acid]",responsiveness of 3MeX2P6 variants to effector,[1],nor were they responsive
N=C(N)NCCC[C@H](N)C(=O)O [arginine],activation of the Rev-dependent ligase,[2],Activation was observed only with HIV Tat peptide
MS2 coat protein: non-cognate protein,activation of Cyt18-dependent ribozyme by non-cognate protein,[3],No activation
O=c1[nH]c(=O)c2[nH]cnc2[nH]1 [xanthine],responsiveness of 3MeX2P6 variants to effector,[1],nor were they responsive
Cn1c(=O)[nH]c2nc[nH]c2c1=O [1-methylxanthine],responsiveness of 3MeX2P6 variants to effector,[1],nor were they responsive
Cn1c(=O)c2[nH]cnc2n(C)c1=O [theophylline],concentration causing a decrease in growth of cells containing the parental td intron (toxic to cells),[4]; E. coli,greater than 0.5 mM
same,concentration that progressively decreases growth of cells with theophylline-dependent introns,[4]; E. coli,above 2 mM
same,responsiveness of 3MeX2P6 variants to effector,[1],no longer responsive
Cn1cnc2c1c(=O)[nH]c(=O)n2C [theobromine],responsiveness of 3MeX2P6 variants to effector,[1],nor were they responsive
E. coli tryptophanyl tRNA synthetase: non-cognate protein,activation of Cyt18-dependent ribozyme by non-cognate protein,[3],No activation
lysozyme: hen egg white lysozyme,activation of Cyt18-dependent ribozyme by non-cognate protein,[3],No activation
same,activation of catalysis by inactivated lysozyme,[5],unable to activate
O=c1[nH]cnc2nc[nH]c12 [hypoxanthine],responsiveness of 3MeX2P6 variants to effector,[1],nor were they responsive
Cn1c(=O)[nH]c(=O)c2[nH]cnc21 [3-methylxanthine],responsiveness of 3MeX2P6 variants to effector,[1],responsive
"cl: high affinity anti-lysozyme aptamer, SEQ ID NO:13 (GCGACTGGACATCACGAG; chemistry not given here)",reduction of lysozyme activation of lys11-2 by competitor RNA,[6],reduced activation to background levels
same,Kd,[7],31 nM
Cn1c(=O)c2c(ncn2C)n(C)c1=O [caffeine],activation of growth of cells with td gene divided by Th2P6 by effector,[4],not activated
same,responsiveness of 3MeX2P6 variants to effector,[1],nor were they responsive
